# Data: US20060287247A1, “Halogen-substituted thienyl compounds” (priority 2001, published 2006)
# Legend:
# B. cereus ATCC 11778 = test: NCCLS broth microdilution MIC; assay type: cell-based, Bacillus cereus; conditions: C = B. cereus ATCC 11778
# E. faecalis ATCC 29212 = test: NCCLS broth microdilution MIC; assay type: cell-based, Enterococcus faecalis; conditions: B = E. faecalis ATCC 29212
# 5′-AAAAAGACAAAAA-3′ = assay type: binding; conditions: DNA sequence 5′-AAAAAGACAAAAA-3′; pH 7.0, 22° C.
# Experimental: (§1) A number of compounds according to this invention were screened for their ability to bind to three DNA sites, using DNase I footprinting. Generally, the procedure described in Dervan, WO 98/50582 (1998), was followed.
# (§2) A plasmid was prepared by hybridizing two sets of 5′-phosphorylated complementary oligonucleotides, one set being
# (§3) The target sites and their complements are identified in bold underline.
# (§4) The resulting duplexes were ligated to the large pUC19 AvaI/SalI restriction fragment. The 3′-P32 end-labeled EcoRI/PvuII fragment was prepared by digesting the plasmid with EcoRI and PvuII with simultaneous fill-in using Sequenase v. 2.0, [alpha-P32]-deoxyadenosine-5′-triphosphate, and [alpha-P32]-thymidine-5′-triphosphate, and isolating the cloned fragment by nondenaturing gel electrophoresis. Standard methods were used for all DNA manipulations, including A and G sequencing. See, e.g., Maxam et al., Methods Enzymol., 1980, 65, 499-560; Iverson et al., Methods Enzymol., 1987, 15, 7823-7830; and Sambrook et al., 1989, Molecular Cloning, 2nd ed., Cold Spring Harbor Laboratory Press: Cold Spring Harbor, N.Y.
# (§5) Quantitative DNase I footprint titration experiments were carried out as described previously (Dervan, WO 98/50582, 1998, “Dervan '582”) with the following changes. All reactions were carried out in a total volume of 400 μL, with polyamide stock solution or water added to 15,000 cpm radiolabeled restriction fragment affording final solution conditions of 10 mM Tris.HCl, 10 mM KCl, 10 mM MgCl2, 5 mM CaCl2, pH 7.0 and 0.01 nM, 0.1 nM, 1.0 nM, 10.0 nM polyamide or no polyamide for reference lanes. The polyamides were allowed to equilibrate at 22° C. for 16 hr. Footprinting reactions were initiated with addition of 10 μL of a DNase I stock solution (at the appropriate concentration to give ˜50% intact DNA) containing 1 mM DTT and allowed to proceed for 7 min at 22° C. The reactions were stopped, ethanol precipitated, resuspended in loading buffer, heat denatured, and placed on ice as described in Dervan '582. The reaction products were separated on a precast 8% polyacrylamide denaturing sequencing Castaway gel with 32 preformed wells from Stratagene in 1× TBE at 2000 V. Gels were dried according to the manufacturer's instructions and exposed to a storage phosphor screen (Molecular Dynamics). Quantitation and data analysis were carried out as described in Dervan '582.
# 5′-AAAAAGCAAAAA-3′ = assay type: binding; conditions: DNA sequence 5′-AAAAAGCAAAAA-3′; pH 7.0, 22° C.
# Experimental: as §1, §2, §3, §4, §5
# 5′-AAAAAGTACAAAAA-3′ = assay type: binding; conditions: DNA sequence 5′-AAAAAGTACAAAAA-3′; pH 7.0, 22° C.
# Experimental: as §1, §2, §3, §4, §5
# S. aureus ATCC 29213 = test: NCCLS broth microdilution MIC; assay type: cell-based, Staphylococcus aureus; conditions: A = S. aureus ATCC 29213
# C. albicans ATCC 38247 = test: NCCLS broth microdilution MIC (antifungal); assay type: cell-based; conditions: E = C. albicans ATCC 38247
# E. coli ATCC 25922 = test: NCCLS broth microdilution MIC; assay type: cell-based; conditions: D = E. coli ATCC 25922
# S. pneumoniae ATCC 49619 = test: NCCLS broth microdilution MIC; assay type: cell-based, Streptococcus pneumoniae; conditions: F = S. pneumoniae ATCC 49619
structure (smiles),measurement,setting,value
CCN(CC)CCNC(=O)CCNC(=O)c1cc(NC(=O)c2cc(NC(=O)CCNC(=O)c3cc(NC(=O)c4cc(NC(=O)c5ccc(Br)s5)cn4C)cn3C)cn2C)cn1C [Id-22],Minimum Inhibitory Concentration (MIC),B. cereus ATCC 11778,+++ (+++ = MIC ≦4)
same,Minimum Inhibitory Concentration (MIC),E. faecalis ATCC 29212,+++ (+++ = MIC ≦4)
same,Equilibrium Association Constant (Ka),5′-AAAAAGACAAAAA-3′,2e+08 M⁻¹
same,Equilibrium Association Constant (Ka),5′-AAAAAGCAAAAA-3′,2e+08 M⁻¹
same,Equilibrium Association Constant (Ka),5′-AAAAAGTACAAAAA-3′,≧1 × 10^11 M^−1
same,Minimum Inhibitory Concentration (MIC),S. aureus ATCC 29213,>32 µg/mL
same,Minimum Inhibitory Concentration (MIC),C. albicans ATCC 38247,>32 µg/mL
same,Minimum Inhibitory Concentration (MIC),E. coli ATCC 25922,>32 µg/mL
same,Minimum Inhibitory Concentration (MIC),S. pneumoniae ATCC 49619,+++ (+++ = MIC ≦4)
